Source: US20150166533A1, “NOVEL 1,3-DIHYDRO-2H-BENZIMIDAZOL-2-ONE DERIVATIVES SUBSTITUTED WITH BENZIMIDAZOLES AS RESPIRATORY SYNCYTIAL VIRUS ANTIVIRAL AGENTS” (Janssen R&D Ireland, priority 2012, published 2015)
Where two headings read alike, the source gives them in different places.

Columns and labels:
rgRSV224 virus = experiment: Antiviral activity: inhibition of rgRSV224 replication (GFP expression) in HeLa cells; format: cell-based, respiratory syncytial virus (RSV); details: read-out: WT activity EC50
Experimental: Black 96-well clear-bottom microtiter plates (Corning, Amsterdam, The Netherlands) were filled in duplicate using a customized robot system with serial 4-fold dilutions of compound in a final volume of 50 μl culture medium [RPMI medium without phenol red, 10% FBS, 0.04% gentamycin (50 mg/ml) and 0.5% DMSO]. Then, 100 μl of a HeLa cell suspension (5×10^4 cells/ml) in culture medium was added to each well followed by the addition of 50 μl rgRSV224 (MOI=0.02) virus in culture medium using a multidrop dispenser (Thermo Scientific, Erembodegem, Belgium). rgRSV224 virus is an engineered virus that includes an additional GFP gene (Hallak et al, 2000) and was in-licensed from the NIH (Bethesda, Md., USA). Medium, virus- and mock-infected controls were included in each test. Cells were incubated at 37° C. in a 5% CO2 atmosphere. Three days post-virus exposure, viral replication was quantified by measuring GFP expression in the cells by a MSM laser microscope (Tibotec, Beerse, Belgium).
(§1) The EC50 was defined as the 50% inhibitory concentration for GFP expression. In parallel, compounds were incubated for three days in a set of white 96-well microtitier plates (Corning) and the cytotoxicity of compounds in HeLa cells was determined by measuring the ATP content of the cells using the ATPlite kit (PerkinElmer, Zaventem, Belgium) according to the manufacturer's instructions. The CC50 was defined as the 50% concentration for cytotoxicity.
Compounds were tested for RSV inhibitory activity. The results are depicted in the Table below (n.d. means not determined): […]

HeLa cells = experiment: Cytotoxicity in HeLa cells, ATP content (ATPlite kit); format: cell-based; details: three days incubation, read-out: Tox CC50
Experimental: as §1

[1] = as above; format: cell-based; details: human, three days incubation, read-out: Tox CC50
Experimental: as §1

[2] = human respiratory syncytial virus, HeLa, 72 h

Compound	EC50 (rgRSV224 virus; rgRSV224 (MOI=0.02) in HeLa cells, GFP expression three days post-virus exposure)	CC50 (HeLa cells)	EC50 (rgRSV224 virus; [2])	CC50 at 3 days [1]	melting point
3-((5-chloro-1-(4-fluorobutyl)-1H-benzo[d]imidazol-2-yl)methyl)-1-(tetrahydrofuran-3-yl)-1H-imidazo[4,5-c]pyridin-2(3H)-one [Compound P10]	15 nM	> 100000 nM			
CC(C)(C)OC(=O)N1CC(n2c(=O)n(Cc3nc4cc(Cl)ccc4n3CCCS(C)(=O)=O)c3ccccc32)C1 [Compound P1, tert-butyl-3-(3-((5-chloro-1-(3-(methyl-sulfonyl)propyl)-1H-bezon[d]imidazol-2-yl)methyl)-2-oxo-2,3-dihydro-1H-imidazo[d]imidazol-1-yl)azetidine-1-carboxylate]			0.68 nM	> 100000 nM	
CC(C)(C)n1c(=O)n(Cc2nc3cc(Cl)ccc3n2CCCS(C)(=O)=O)c2cnccc21 [Compound P2, 1-tert-butyl-3-((5-chloro-1-(3-(methyl-sulfonyl)propyl)-1H-benzo[d]imidazol-2-yl)methyl)-1H-imidazo[4,5-c]pyridin-2(3H)-one]			0.39 nM	> 100000 nM	197 °C
CC1(n2c(=O)n(Cc3nc4cc(Cl)ccc4n3CCCS(C)(=O)=O)c3cnccc32)CC1 [Compound P3]			0.25 nM	> 100000 nM	
O=c1n(Cc2nc3cc(Cl)ccc3n2CCCCF)c2cnccc2n1-c1ccc(F)cc1 [Compound P4, 3-((5-chloro-1-(4-fluorobutyl)-1H-benzo[d]imidazol-2-yl)methyl)-1-(4-fluorophenyl)-1H-imidazo[4,5-c]pyridin-2(3H)-one]			0.3 nM	> 100000 nM	180 °C
COc1ccc(-n2c(=O)n(Cc3nc4cc(Cl)ccc4n3CCCCF)c3cnccc32)cc1 [Compound P5, 3-((5-chloro-1-(4-fluorobutyl)-1H-benzo[d]imidazol-2-yl)methyl)-1-(4-methoxyphenyl)-1H-imidazo[4,5-c]pyridin-2(3H)-one]			< 0.1 nM	> 100000 nM	167 °C
O=c1n(Cc2nc3cc(Cl)ccc3n2CCCCF)c2cnccc2n1-c1ccc(F)nc1 [Compound P6, 3-((5-chloro-1-(4-fluorobutyl)-1H-benzo[d]imidazol-2-yl)methyl)-1-(6-fluoropyridin-3-yl)-1H-imidazo[4,5-c]pyridin-2(3H)-one]			0.79 nM	> 100000 nM	208 °C
COc1ccc(-n2c(=O)n(Cc3nc4cc(Cl)ccc4n3CCCS(C)(=O)=O)c3cnccc32)cc1 [Compound P7, 3-((5-chloro-1-(3-(methylsulfonyl)propyl)-1H-benzo[d]imidazol-2-yl)-methyl)-1-(4-methoxyphenyl)-1H-imidazo[4,5-c]pyridin-2(3H)-one]			0.05 nM	> 100000 nM	250 °C
O=c1n(Cc2nc3cc(Cl)ccc3n2CCCCF)c2cnccc2n1-c1nccs1 [Compound P8, 3-((5-chloro-1-(4-fluororbutyl)-1H-benzo[d]imidazol-2-yl)methyl)-1-(thiazol-2-yl)-1H-imidazo[4,5-c]pyridin-2(3H)-one]			0.19 nM	> 100000 nM	206 °C
O=c1n(Cc2nc3cc(Cl)ccc3n2CCCCF)c2cnccc2n1-c1ccc2ncccc2c1 [Compound P9, 3-((5-chloro-1-(4-fluororbutyl)-1H-benzo[d]imidazol-2-yl)methyl)-1-(quinolin-6-yl)-1H-imidazo[4,5-c]pyridin-2(3H)-one]			0.25 nM	> 100000 nM	231 °C
